Patent US20060035869A1, “Inhibitors of epoxide hydrolases for the treatment of hypertension” (THE REGENTS OF THE UNIVERSITY OF CALIFORNIA OFFICE OF …, priority 1999, published 2006)
Where two headings read alike, the source gives them in different places.

Key:
[1] = biological target: T1, mouse sEH (Mus musculus, UniProt P34914); assay: Inhibition of recombinant mouse soluble EH, spectrophotometric NEP2C assay; format: biochemical
T1 construct: made in house; host or cells: baculovirus expression system (insect cells)
T1 sequence (P34914 1-554): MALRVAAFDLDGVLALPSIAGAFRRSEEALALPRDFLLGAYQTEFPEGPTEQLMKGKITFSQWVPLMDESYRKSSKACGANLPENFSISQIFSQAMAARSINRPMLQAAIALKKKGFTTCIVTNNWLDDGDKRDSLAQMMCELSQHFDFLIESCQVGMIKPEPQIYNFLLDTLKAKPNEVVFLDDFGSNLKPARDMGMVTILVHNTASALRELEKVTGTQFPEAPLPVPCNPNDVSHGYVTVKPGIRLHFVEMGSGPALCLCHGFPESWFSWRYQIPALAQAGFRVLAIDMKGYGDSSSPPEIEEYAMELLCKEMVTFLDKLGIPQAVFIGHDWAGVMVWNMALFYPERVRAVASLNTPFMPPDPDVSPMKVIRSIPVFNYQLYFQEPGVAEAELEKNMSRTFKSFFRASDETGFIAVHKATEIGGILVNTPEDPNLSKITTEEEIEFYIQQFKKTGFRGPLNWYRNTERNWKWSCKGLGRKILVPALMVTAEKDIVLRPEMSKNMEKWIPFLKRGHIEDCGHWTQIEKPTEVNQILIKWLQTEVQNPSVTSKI
Procedure: (§1) Recombinant mouse sEH (MsEH) and human sEH (HsEH) were produced in a baculovirus expression system as previously reported. […] The expressed proteins were purified from cell lysate by affinity chromatography. […] Protein concentration was quantified using the Pierce BCA assay using bovine serum albumin as the calibrating standard.
(§2) The mixture was incubated at 30° C. for 5 minutes. […] Assays were performed in quadruplicate.

[2] = test system: leukotoxin/isoleukotoxin induced death; assay: Protection of mice against leukotoxin/isoleukotoxin induced death; format: in vivo, mouse; conditions: Swiss Webster mice, 400 mg/kg i.p. in corn oil 30 minutes before leukotoxin/isoleukotoxin methyl esters 700 mg/kg i.v.
Procedure: Male Swiss Webster mice (25-28 g) were purchased from Simonsen, Gilroy, Calif. The animals had free access to water and food. […] After 30 minutes of the pretreatment, the mice were treated intravenously through the tail vein with a 1:1 mixture of leukotoxin/isoleukotoxin methyl esters in ethanol (700 mg/kg, 1.0 ml/kg).
The mice died of respiratory distress after exposure to leukotoxin/isoleukotoxin. The lethal reactions took place sequentially with accelerated breathing, opening of the mouth to assist breathing, and bloody fluid running from the nose.

[3] = biological target: T2, Rat mEH (Rattus norvegicus, UniProt P07687); assay: Inhibition of mammalian microsomal EH, 3H-cis-stilbene oxide assay; format: biochemical
T2 sequence (P07687 1-455): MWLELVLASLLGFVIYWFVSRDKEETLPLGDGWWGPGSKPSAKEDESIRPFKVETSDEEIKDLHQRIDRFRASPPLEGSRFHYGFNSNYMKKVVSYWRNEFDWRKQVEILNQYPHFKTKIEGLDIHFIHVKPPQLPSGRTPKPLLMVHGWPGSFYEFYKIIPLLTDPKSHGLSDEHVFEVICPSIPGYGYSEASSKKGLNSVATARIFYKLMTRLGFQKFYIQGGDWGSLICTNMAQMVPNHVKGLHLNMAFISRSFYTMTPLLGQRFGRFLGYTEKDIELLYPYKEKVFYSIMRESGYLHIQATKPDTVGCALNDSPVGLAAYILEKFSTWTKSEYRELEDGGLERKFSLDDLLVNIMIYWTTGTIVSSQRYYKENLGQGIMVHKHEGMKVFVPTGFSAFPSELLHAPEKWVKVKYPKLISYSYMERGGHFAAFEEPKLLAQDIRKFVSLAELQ
Procedure: as §2

[4] = biological target: T3, human sEH (Homo sapiens, UniProt P34913); assay: Inhibition of recombinant human soluble EH, spectrophotometric NEP2C assay; format: biochemical; conditions: recombinant enzyme, NEP2C 40 μM, 30° C., pH 7.4
T3 construct: made in house; host or cells: baculovirus expression system (insect cells)
T3 sequence (P34913 1-555): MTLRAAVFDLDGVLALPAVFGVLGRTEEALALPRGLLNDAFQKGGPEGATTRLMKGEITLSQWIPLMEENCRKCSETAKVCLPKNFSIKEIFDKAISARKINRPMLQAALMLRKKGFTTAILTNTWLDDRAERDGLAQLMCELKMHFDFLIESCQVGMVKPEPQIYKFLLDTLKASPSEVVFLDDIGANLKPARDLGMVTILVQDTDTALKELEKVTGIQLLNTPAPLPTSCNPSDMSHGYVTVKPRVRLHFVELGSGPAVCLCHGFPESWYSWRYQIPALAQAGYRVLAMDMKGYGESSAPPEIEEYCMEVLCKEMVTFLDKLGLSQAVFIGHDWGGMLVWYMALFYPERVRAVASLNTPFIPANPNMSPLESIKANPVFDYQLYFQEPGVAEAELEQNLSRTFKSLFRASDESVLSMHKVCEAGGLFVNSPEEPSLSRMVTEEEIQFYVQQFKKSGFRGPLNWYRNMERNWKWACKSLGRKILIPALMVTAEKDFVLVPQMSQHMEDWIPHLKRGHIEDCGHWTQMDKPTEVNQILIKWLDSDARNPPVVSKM
Procedure: as §1, §2

[5] = biological target: T4, M secta mEH (Manduca sexta, UniProt Q25489); assay: Inhibition of recombinant insect microsomal EH; format: biochemical
T4 sequence (Q25489 1-462): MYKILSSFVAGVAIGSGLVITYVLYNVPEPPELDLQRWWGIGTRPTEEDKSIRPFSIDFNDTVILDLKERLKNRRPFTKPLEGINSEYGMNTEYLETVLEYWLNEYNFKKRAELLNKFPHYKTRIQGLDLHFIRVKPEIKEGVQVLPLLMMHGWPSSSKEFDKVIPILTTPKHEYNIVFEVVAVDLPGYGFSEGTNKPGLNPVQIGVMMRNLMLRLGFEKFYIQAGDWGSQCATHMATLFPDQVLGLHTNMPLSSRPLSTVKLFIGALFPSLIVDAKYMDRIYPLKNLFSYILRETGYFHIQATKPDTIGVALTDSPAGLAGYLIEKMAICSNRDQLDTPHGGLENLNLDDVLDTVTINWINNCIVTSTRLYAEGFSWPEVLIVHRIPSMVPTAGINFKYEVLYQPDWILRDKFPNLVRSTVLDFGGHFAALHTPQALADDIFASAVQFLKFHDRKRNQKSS

[6] = recombinant enzyme, NEP2C 40 μM, 30° C., pH 7.4, read-out: Mouse sEH IC50

| SMILES | IC50 [3] [µM] | IC50 [4] [µM] | also measured |
| --- | --- | --- | --- |
| C(=NC1CCCCC1)=NC1CCCCC1 [Compound 1, dicyclohexylcarbodiimide] |  |  | effect of time on the inhibition of mouse sEH ([1]; FIG. 1): increased with the time |
| O=C(NC1CCCCC1)NC1CCCCC1 [Compound 2, N,N′-dicyclohexylurea] | > 500 |  | animal death induced by leukotoxin/isoleukotoxin [2]: either blocked the animal death induced by leukotoxin/isoleukotoxin or lengthened the lives of the mice |
| O=C(NC1CCCCC1)SC1CCCCC1 [Compound 11] |  | 7.5 ± 0.4 | IC50 [1]: 3.8 ± 0.01 µM |
| S=C(NC1CCCCC1)NC1CCCCC1 [Compound 12] |  | 20 ± 1 | IC50 [1, 6]: 99 ± 5 µM |
| CCCCCCCCCCNC(=O)NC [Compound 17] |  |  | IC50 [5]: 28 ± 2 µM |
| CCCCCCCCCCNC(=O)NCC [Compound 19] |  |  | IC50 [5]: 4.8 ± 0.4 µM |
| CCCCCCCCCCNC(=O)NCC [Compound 28] | 8.3 ± 0.4 | 48 ± 3 | IC50 [1, 6]: 5.8 ± 0.4 µM |
| CNC(=O)Nc1ccc(Cl)c(Cl)c1 [Compound 32] | > 500 | 47 ± 2 | IC50 [1, 6]: 108 ± 4 µM |
| O=C(NCC1CCCCC1)NC1CCCCC1 [Compound 57] | > 500 |  |  |
| O=C(NC1CCCCCCC1)NC1CCCCC1 [Compound 58] | > 500 |  | IC50 [5]: 3.9 ± 0.4 µM |
| CCCCCCCCNC(N)=O [Compound 101] | 73 ± 1 | 5.5 ± 0.1 | IC50 [1, 6]: 1.04 ± 0.02 µM |
| O=C(NCCCc1ccccc1)NC1CCCCC1 [Compound 104] | > 500 |  |  |
| O=C(Nc1ccc(Oc2ccccc2)cc1)NC1CCCCC1 [Compound 140] | > 500 |  |  |
| [O-][S+](Cc1ccccc1)Cc1ccccc1 [Compound 161] | > 500 | 289 ± 7 | IC50 [1]: 156 ± 3 µM |
| CCOC(CCCNC(=O)Nc1cccc(Cl)c1)OCC [Compound 167] | > 500 |  |  |
| CCCCCCCCNC(=O)NC1CCCCC1 [Compound 168] | > 500 |  |  |
| O=C(NCC1CCCCC1)Nc1ccc2ccccc2c1 [Compound 169] | > 500 |  |  |
| CCCCCCCCCCNC(=O)Nc1cccc(Cl)c1 [Compound 172] | > 500 |  |  |
| O=C(NCC1CCCCC1)Nc1cccc(Cl)c1 [Compound 179] | > 500 |  |  |
| CC(C)c1ccc(NC(=O)NCC2CCCCC2)cc1 [Compound 180] | > 500 |  |  |
| O=C(NCc1ccc(Cl)cc1)NC1CCCCC1 [Compound 193] | > 500 |  |  |
| [H]/N=C(\N/C(=N/[H])NCCCCCCNC(=N)NC(=N)Nc1ccc(Cl)cc1)Nc1ccc(Cl)cc1 [Compound 204] |  | 49 ± 7 | IC50 [1, 6]: > 250 µM |
| CC1CCC(C(C)C)C(OC(=O)NC2CCCCC2)C1 (stereo not shown) [Compound 225] | > 500 | 1.05 ± 0.03 |  |
| CCCCCCCCCCCCNC(=O)NCCF [Compound 238] | 9.9 ± 0.2 | 57 ± 1 | IC50 [1, 6]: 50 ± 5 µM |
| CCCCCCCCCCN [Compound 303] | 2.67 ± 0.07 | > 500 | IC50 [1, 6]: > 500 µM |
